# Measured values as given in patent US11535597B2, “Photoreactive ligands and uses thereof” (The Scripps Research Institute, priority 2017, dated 2022).
# System: proteins in HEK293T cells
# Assay: MS-based mapping of FFF probe-modified peptides (isoTOP, sites of labeling)
# Assay type: binding, human
# Experimental: Preparation and analysis was adapted from methods previously reported. In brief, for global mapping of fragment probe-modified peptides, separate 10 cm dishes of cells were treated with probes (200-250 μM) in 3.0 mL of DMEM (serum-free) and (if applicable) competitor ligands, proteomes harvested and subjected to click chemistry conditions with either light or heavy isotopically labeled biotin-TEV-azide (10 μL of 5 mM stocks in DMSO, final concentration=100 μM), TCEP, ligand and CuSO4 as detailed above. The samples were allowed to react for 1 h at which point the samples were centrifuged (16,000 g, 5 min, 4° C.). The resulting pellets were sonicated in ice-cold methanol (500 μL) and the resuspended light- and heavy-labeled samples were then combined and centrifuged (16,000 g, 5 min, 4° C.). The pellets were then solubilized in PBS containing 1.2% SDS (1 mL) with sonication and heating (5 min, 95° C.). Samples were transferred to falcon tubes containing DPBS (5 mL), to which a 100 μL of streptavidin-agarose beads slurry was added. After incubation, the beads (3 hr) were pelleted by centrifugation (1,400 g, 3 min) and were washed (2×10 mL PBS and 2×10 mL water). The beads were transferred to eppendorf tubes with 1 mL DPBS, centrifuged (1,400 g, 3 min), and resuspended in PBS containing 6 M urea. To this was added 10 mM DTT (25 μL of a 200 mM stock in water) and the beads were incubated at 65° C. for 15 mins. 20 mM iodoacetamide (25 μL of a 400 mM stock in water) was then added and allowed to react at 37° C. for 30 mins with shaking. The bead mixture was diluted with 900 μL PBS, pelleted by centrifugation (1,400 g, 3 min), and resuspended in 200 μL 2M urea (DPBS) containing trypsin and CaCl2 as described above. The beads were separated from the digest by centrifugation (1,000 g, 1 min), washed (2×1 mL PBS and 2×1 mL water) and then transferred to fresh eppendorfs with 1 mL water. The washed beads were washed once further in 150 μL TEV buffer (50 mM Tris, pH 8, 0.5 mM EDTA, 1 mM DTT) by centrifugation (1,400 g, 3 min) and the resuspended in 150 μL TEV buffer. 5 μL TEV protease (80 μM) was added and the reactions were rotated overnight at 29° C. The TEV digest was separated from the beads by centrifugation (1,400 g, 3 min) and the beads were washed once with water (100 μL). The samples were then acidified to a final concentration of 5% (v/v) formic acid and stored at −80° C. prior to analysis.
# The resulting probe-modified peptides were collected for MS analysis, which was performed as described above with differences in the salt bumps applied in the chromatographic gradients which in this case were 0%, 30%, 60%, 90% and 100% NH4OAc (500 μM). The protein identification searches of the MS data were performed with the following changes applied to identify the peptides modified with the corresponding fragment probe and the cleaved TEV tag. All amino acids were considered as possible residues for modification. To facilitate the computational searches, sets of up to 3 amino acids were searched using ProLuCID and filtered with DTASelect as described above. […] The isoTOP ratios for probe labeled peptides were quantified using the in-house software CIMAGE.
# For each protein in the site-of-labeling dataset, the UniProtKB accession number was used to map and collect relevant structures from the RCSB Protein Data Bank (PDB) fulfilling the following criteria: structures determined by X-ray crystallography, wild-type protein, Homo sapiens as the sole source organism. […] Fpocket 2.0 was used to detect potential binding pockets for the resultant structures with all parameters set at recommended default. Pockets with volume less than 500 Å^3 were removed from output prior to further analysis. Residues surrounding fpocket predicted binding pockets for each protein were collected to determine the number of residues overlapping with isoTOP peptides.
# [1] = protein PSMA2 Proteasome subunit alpha type-2 (P25787)
# [2] = protein PSMA2 Proteasome subunit alpha type-2, residues of the probe-labeled peptide
smiles,measurement,setting,value
"C#CCCC1(CCC(=O)Nc2ccc3oc(=O)ccc3c2)N=N1 [probe 3, 3-(3-(But-3-yn-1-yl)-3H-diazirin-3-yl)-N-(2-oxo-2H-chromen-6-yl)propanamide]",Labeled Peptide of H2AFZ Histone H2A.Z,"Accession P0C0S5, residues of probe-labeled peptide, family Transcription factors, Regulators",47-75
same,Labeled Peptide of GRWD1 Glutamate-rich WD repeat-containing protein 1,"Accession Q9BQ67, residues of probe-labeled peptide, family Uncategorized",183-198
same,Labeled Peptide,"H2AFZ Histone H2A.Z, residues of probe-modified peptide",47-75
same,Labeled Peptide,"HSD17B4 Peroxisomal multifunctional enzyme type 2, residues of probe-modified peptide",169-183
same,Labeled Peptide,"LMNA Prelamin-A/C (P02545), residues of the probe-labeled peptide",172-180
same,Labeled Peptide,"NONO (Q15233), residues of the probe-labeled peptide",127-135
same,Labeled Peptide,P00387 CYB5R3 NADH-cytochrome b5 reductase 3,235-241
same,Labeled Peptide (residues) of PGK1 Phosphoglycerate kinase 1,"P00558, peptide QIVWNGPVGVFEWEAFAR, PDB 2WZB",333-350
same,Labeled Peptide,"P12532 CKMT1B Creatine kinase U-type, mitochondrial",257-269
same,Labeled Peptide,P38117 ETFB Electron transfer flavoprotein subunit beta,36-51
same,Labeled Peptide,P51659 HSD17B4 multifunctional enzyme type 2,169-183
same,Labeled Peptide,"PARP1 (P09874), residues of the probe-labeled peptide",954-1000
same,Labeled Peptide,Q08211 DHX9 ATP-dependent RNA helicase A,448-456
same,Labeled Peptide,"protein ABHD10 (Q9NUJ1), residues of probe-labeled peptide",285-300
same,Labeled Peptide,"protein ACTL6A (O96019), residues of probe-labeled peptide",25-34
same,Labeled Peptide,"protein ANAPC7 (Q9UJX3), residues of probe-labeled peptide",407-424
same,Labeled Peptide,"protein CDK5RAP3 CDK5 regulatory subuni-associated protein 3 (Q96JB5), residues of probe-labeled peptide",351-367
same,Labeled Peptide,"protein CKMT1B Creatine kinase U-type, mitochondria, residues of probe-labeled peptide",257-269
same,Labeled Peptide,"protein CKMT1B Creatine kinase U-type, motochondrial (P12532), residues of probe-labeled peptide",257-269
same,Labeled Peptide,"protein CYB5R3 NADH-cytochrome b5 reductase 3 (P00387), residues of probe-labeled peptide",235-241
same,Labeled Peptide,"protein CYB5R3 NADH-cytochrome b5 reductase 3, residues of probe-labeled peptide",235-241
same,Labeled Peptide,"protein DDX17 Propable ATP-dependent RNA helicase DDX17 (Q92841), residues of probe-labeled peptide",536-547
same,Labeled Peptide,"protein DHX9 ATP-dependent RNA helicase A (Q08211), residues of probe-labeled peptide",448-456
same,Labeled Peptide,"protein DHX9 ATP-dependent RNA helicase A, residues of probe-labeled peptide",448-456
same,Labeled Peptide,"protein EEF1G Elongation factor 1-gamma (P26641), residues of probe-labeled peptide",58-85
same,Labeled Peptide,"protein ETFB Electron transfer flavoprotein subunit beta (P38117), residues of probe-labeled peptide",36-51
same,Labeled Peptide,"protein ETFB Electron transfer flavoprotein subunit beta, residues of probe-labeled peptide",36-51
same,Labeled Peptide,"protein NONO Non-POU domain-containing octamer-binding protein, residues of the probe-labeled peptide",127-135
same,Labeled Peptide,protein PGK1 Phosphoglycerate kinase 1 (P00558),333-350
same,Labeled Peptide,"protein PGK1 Phosphoglycerate kinase 1, residues of the probe-labeled peptide",333-350
same,Labeled Peptide,[1],19-39
same,Labeled Peptide,[2],19-39
same,Labeled Peptide,protein Q96I99 SUCLG2 Succinyl-CoA ligase,151-160
same,Labeled Peptide,protein Q01105 SET Protein SET,91-122
same,Labeled Peptide,"protein RBMXL1 RNA binding motif protein, X-linked-like-1 (Q96E39)",245-252
"C#CCCC1(CCC(=O)NC2N=C(c3ccccc3)c3ccccc3NC2=O)N=N1 (centres unmarked) [probe 2, 3-(3-(But-3-yn-1-yl)-3H-diazirin-3-yl)-N-(2-oxo-5-phenyl-2,3-dihydro-1H-benzo[e][1,4]diazepin-3-yl)propanamide]",Labeled Peptide of GSTP1 Glutathione S-transferase P,"Accession P09211, residues of probe-labeled peptide, family Enzymes",56-71
same,Labeled Peptide of HNRNPH3 Heterogeneous nuclear ribonucleoprotein H3,"Accession P31942, residues of probe-labeled peptide, family Transcription factors, Regulators",324-343
same,Labeled Peptide of FUS RNA-binding protein FUS,"Accession P35637, residues of probe-labeled peptide, family Transcription factors, Regulators",335-348
same,Labeled Peptide,"GSTP1 Glutathione S-transferase P, residues of probe-modified peptide",56-71
same,Labeled Peptide,"HNRNPL Heterogeneous nuclear ribonucleoprotein L, residues of probe-modified peptide",399-411
same,Labeled Peptide,"MESDC2 LDLR chaperone MESD (Q14696), residues of the probe-labeled peptide",113-127
same,Labeled Peptide,"NOC2L (Q9Y3T9), residues of the probe-labeled peptide",591-606
same,Labeled Peptide,P09211 GSTP1 Glutathione S-transferase P,56-71
same,Labeled Peptide (residues) of PPP1CC Serine/threonine-protein phosphatase PP1-gamma cat,"P36873, peptide IYGFYDECK, PDB 4UT2",133-141
same,Labeled Peptide,P55263 ADK Adenosine kinase,209-224
same,Labeled Peptide (residues) of PPP1CA Serine/threonine-protein phosphatase PP1-alpha cat,"P62136, peptide IYGFYDECK, PDB 4XPN",133-141
same,Labeled Peptide,"protein ADK (P55263), residues of probe-labeled peptide",209-224
same,Labeled Peptide,"protein ADK Adenosine kinase, residues of probe-labeled peptide",209-224
same,Labeled Peptide,"protein BSG Basigin (P35613), residues of probe-labeled peptide",228-243
same,Labeled Peptide,"protein CLPTM1 Cleft lip and palate transmembrane protein 1 (O96005), residues of probe-labeled peptide",548-562
same,Labeled Peptide,"protein EIF3E Eukaryotic translation initiation factor 3 submit (P60228), residues of probe-labeled peptide",173-191
same,Labeled Peptide,"protein EIF3H Eukaryotic translation initiation factor 3 submit (O15372), residues of probe-labeled peptide",207-220
same,Labeled Peptide,"protein EQSR1 RNA-binding protein EWS (Q01844), residues of probe-labeled peptide",269-292
same,Labeled Peptide,"protein FARSB Phenylalanine--tRNA ligase beta subunit, residues of probe-labeled peptide",518-530
same,Labeled Peptide,"protein FARSB Phenylalanini--tRNA ligase beta subunit (Q9NSD9), residues of probe-labeled peptide",518-530
same,Labeled Peptide,protein P62917 RPL8 60S ribosomal protein L8,129-144
same,Labeled Peptide,protein PFDN5 Prefoldin subunit 5 (Q99471),20-37
same,Labeled Peptide,"protein PPP1CA Serine/threonine-protein phosphatase PP1-alpha cat, residues of the probe-labeled peptide",133-141
same,Labeled Peptide,protein PPP1CA Serine/threonine-protein phosphate PP1-alpha cat (P62136),133-141
same,Labeled Peptide,protein PPP1CB Serine/threonine-protein phosphate PP1-alpha cat (P62140),132-140
same,Labeled Peptide,"protein PPP1CC Serine/threonine-protein phosphatase PP1-gamma cat, residues of the probe-labeled peptide",133-141
same,Labeled Peptide,protein PPP1CC Serine/threonine-protein phosphate PP1-gamma cat (P36873),133-141
same,Labeled Peptide,[1],144-159
same,Labeled Peptide,[2],144-159
same,Labeled Peptide,protein PSMD11 26S proteasome non-ATPase regulatory subunit 11 (O00231),164-175
same,Labeled Peptide,"protein PTCD3 Pentatricopeptide repeat-containing protein 3, mit (Q96EY7)",119-126
same,Labeled Peptide,protein Q6NUK1 SCLC25A24 Calcium-binding mitochondrial carrier protein SCaM,454-469
same,Labeled Peptide,protein Q15631 TSN Translin,205-215
same,Labeled Peptide,protein Q92804 TAF15 TATA-binding protein-associated factor 2N,284-297
same,Labeled Peptide,protein QKI Protein quaking (Q96PU8),192-205
same,Labeled Peptide,"protein RUVBL1 RuvB-like 1, residues of the probe-labeled peptide",318-333
same,Labeled Peptide,"protein RUVBL1 RuvB-like 1, residues of the probe-modified peptide",91-107
same,Labeled Peptide,"protein TSN Translin, residues of the probe-modified peptide",205-215
"C#CCCC1(CCC(=O)NCCc2ccc3c(c2)OCO3)N=N1 [probe 15, N-(2-(Benzo[d][1,3]dioxol-5-yl)ethyl)-3-(3-(but-3-yn-1-yl)-3H-diazirin-3-yl)propanamide]",Labeled Peptide,"MCM4 (P33991), residues of the probe-labeled peptide",502-516
same,Labeled Peptide,"NUDT12 (Q9BQG2), residues of the probe-labeled peptide",143-166
same,Labeled Peptide,"protein FDFT1 Squalene synthase (P37268), residues of probe-labeled peptide",78-92
same,Labeled Peptide,"protein FDFT1 Squalene synthase, residues of probe-labeled peptide",78-92
